Patent publication US11389413B2, “Methods of preparing compositions containing thymoquinone” (Jina Pharmaceuticals, Inc., priority 2017, dated 2022)

Experiments:
[1] = system: streptozotocin (STZ) induced diabetic mice; assay: Hypoglycemic activity in streptozotocin-induced diabetic mice (blood glucose, water intake); format: in vivo, Male ICR (CD-1) mice
Experimental: Induction of Experimental Diabetes in Mice: Male ICR (CD-1) mice (8-9 weeks of age) were fasted for 6 hrs. before streptozotocin (STZ) administration. Fresh STZ solution at 15 mg/mL was prepared by dissolving powder STZ into 1 mM citrate buffer (pH 4.5). Mice received i.p. STZ solution of 150 mg/kg. Fasting blood glucose level was measured from tail vein blood. Mice with blood glucose levels of 250 mg/dL or higher were considered to be diabetic. Blood samples with “HI” (>600 mg/dL) reading were diluted with same amount of normal saline before measuring again.
A total of 20 diabetic mice were randomized based on the blood glucose levels into two study groups, group A: Metformin (Met)-treated, and group B: Thymoquinone/Metformin (TQ/Met)-treated groups.
There were 10 animals in each group. Mice in group A received oral administration of Met at a dose of 200 mg/kg every day. Mice in group B received oral administration of Met+TQ (200 mg/kg+50 mg/kg) every day using a 20-Ga stainless feeding needle. Fasting blood glucose level was measured weekly.
Water intake was also estimated by weighing each water bottle before and after a period of 24 hrs. The volume of water consumed was estimated from the weight of water consumed. The volume of water consumed by each cage was normalized with body weight and presented as mL/30 g BW over 24 hrs.

[2] = system: Lipopolysaccaride/D-Galactosamine (LPS/GaIN) induced acute liver failure; assay: LPS/GalN induced acute liver failure, survival; format: in vivo, Male C57BL6 mice; settings: TQ 200 mg/kg oral gavage 30 min after LPS/GalN injection; all control mice died in over 7 hrs
Experimental: A total of 13 male C57BL6 mice (5-6 weeks of age) were injected intraperitoneally with D-galactosamine (GaIN, Carbosynth) (800 mg/kg) and lipopolysaccharide (LPS from E coli 0127:B8, Sigma-Aldrich) (10 μg/kg) dissolved in normal saline. 30 min after LPS/GalN injection, 6 mice in the control group received purified water (20 mL/kg) and 7 mice received a TQ at a dose of 200 mg/kg, via oral gavage. Survival was monitored for 48 hrs. All mice in the control group died in over 7 hrs. period following the injection of LPS/GalN, while 4 out of 7 mice treated with TQ survived up to 48 hrs. (see FIG. 2).

[3] = cited from earlier work
[4] = cited from earlier work; remark: listed apart in the source

| SMILES | Blood Glucose Level, Pre-Treat ([1]; fasting blood glucose, STZ diabetic mice, before treatment, Mean ± SD, n = 10) | Blood Glucose Level, 1-Week Treat ([1]; fasting blood glucose, oral daily dosing, 1 week, Mean ± SD, n = 10) | Blood Glucose Level, 2-Week Treat ([1]; fasting blood glucose, oral daily dosing, 2 weeks, Mean ± SD, n = 10) | Blood Glucose Level, 3-Week Treat ([1]; fasting blood glucose, oral daily dosing, 3 weeks, Mean ± SD, n = 10) | decrease in blood glucose level ([1]; over 3-week period, oral daily, Met 200 mg/kg, Met+TQ 200 mg/kg+50 mg/kg) | mice surviving up to 48 hrs [2] | solubility in aqueous buffers [3] | stability in aqueous solutions [4] |
| --- | --- | --- | --- | --- | --- | --- | --- | --- |
| CN(C)C(=N)N=C(N)N [Met, Metformin] | 443 ± 102 mg/dL | 433 ± 115 mg/dL | 290 ± 84 mg/dL | 299 ± 96 mg/dL | 32.5% |  |  |  |
| CC1=CC(=O)C(C(C)C)=CC1=O [TQ, 2-Isopropyl-5-methyl-1,4-benzoquinone] |  |  |  |  |  | 4 out of 7 | approx. 500 μg/mL | highly unstable |
